Drawing on patent publication US9694016B2 (Novartis AG, priority 2013, dated 2017), this text covers IC50 for 31 molecules.

The structures appear in SMILES notation.

The target of the first experiment is T1, b-Raf (V600E) (Homo sapiens (Human), UniProt P15056, V600E).
T1 sequence (P15056 whole entry V600E): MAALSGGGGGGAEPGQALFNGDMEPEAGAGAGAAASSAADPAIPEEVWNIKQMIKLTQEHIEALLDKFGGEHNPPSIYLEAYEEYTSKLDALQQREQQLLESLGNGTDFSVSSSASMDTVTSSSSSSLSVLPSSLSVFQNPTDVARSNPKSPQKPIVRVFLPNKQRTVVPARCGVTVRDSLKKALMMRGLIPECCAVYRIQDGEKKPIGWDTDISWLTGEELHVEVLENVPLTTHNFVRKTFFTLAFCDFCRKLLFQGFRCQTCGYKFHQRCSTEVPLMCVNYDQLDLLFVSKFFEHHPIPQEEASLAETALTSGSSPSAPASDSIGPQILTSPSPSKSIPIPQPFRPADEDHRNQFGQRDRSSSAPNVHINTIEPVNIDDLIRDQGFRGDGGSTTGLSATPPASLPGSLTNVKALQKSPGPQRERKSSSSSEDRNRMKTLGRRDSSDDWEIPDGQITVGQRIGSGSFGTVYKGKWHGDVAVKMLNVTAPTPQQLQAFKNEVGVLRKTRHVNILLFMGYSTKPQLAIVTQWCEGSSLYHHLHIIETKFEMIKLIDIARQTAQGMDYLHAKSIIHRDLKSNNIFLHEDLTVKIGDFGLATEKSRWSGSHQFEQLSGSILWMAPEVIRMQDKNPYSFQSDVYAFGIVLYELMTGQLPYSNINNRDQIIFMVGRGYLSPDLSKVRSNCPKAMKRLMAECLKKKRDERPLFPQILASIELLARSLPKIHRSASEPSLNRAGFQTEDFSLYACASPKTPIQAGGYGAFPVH
Assay: not given
As to conditions: read-out: b-Raf IC-50; AlphaScreen, 60 min pre-incubation, 3 hours reaction. Background: In Alpha technology, singlet oxygen from a donor bead excites a nearby acceptor bead.
On to `CCNc1nc(-c2cc(NC(=O)c3cccc(C(F)F)c3)cnc2C)cc(N2CCOCC2)n1` [Example 722, 3-(difluoromethyl)-N-(5-(2-(ethylamino)-6-morpholinopyrimidin-4-yl)-6-methylpyridin-3-yl)benzamide], for which the IC50 came out at 1.6 nM.

`Cc1ccc(NC(=O)c2ccnc(C(F)(F)F)c2)cc1-c1cc(N2CCOCC2)nc(N(C)C)n1` [Example 758, N-(3-(2-(dimethylamino)-6-morpholinopyrimidin-4-yl)-4-methylphenyl)-2-(trifluoromethyl)isonicotinamide]: the IC50 was 2.8 nM.

As to `Cc1ccc(NC(=O)c2cccc(C(F)(F)F)c2)cc1-c1cc(N2CCOCC2=O)c(=O)n(C)c1` [Example 451, N-(4-methyl-3-(1-methyl-6-oxo-5-(3-oxomorpholino)-1,6-dihydropyridin-3-yl)phenyl)-3-(trifluoromethyl)benzamide], the IC50 was 83.7 nM.

For `Cc1ccc(NC(=O)c2ccnc(C(C)C)c2)cc1-c1cc(N2CCOCC2)nc(N2CC(O)C2)n1` [Example 771, N-(3-(2-(3-hydroxyazetidin-1-yl)-6-morpholinopyrimidin-4-yl)-4-methylphenyl)-2-isopropylisonicotinamide], the IC50 stood at 2.5 nM.

Consider `Cc1ncc(NC(=O)c2ccnc(C(C)(C)C#N)c2)cc1-c1cc(N2CCOCC2)nc(N2C(=O)OC[C@@H]2C)n1` [Example 784, (S)-2-(2-cyanopropan-2-yl)-N-(6-methyl-5-(2-(4-methyl-2-oxooxazolidin-3-yl)-6-morpholinopyrimidin-4-yl)pyridin-3-yl)isonicotinamide], for which the IC50 stood at 200 nM.

For `Cc1ccc(C(=O)Nc2ccccc2)cc1-c1cc(N2CCOCC2)n(C)c(=O)c1` [Example 518, 4-methyl-3-(1-methyl-6-morpholino-2-oxo-1,2-dihydropyridin-4-yl)-N-phenylbenzamide], the IC50 amounted to 79 nM.

Consider `Cc1ncc(C(=O)Nc2cccc(C(C)(C)O)c2)cc1-c1cc(N2CCOCC2)c(=O)n(C)c1` [Example 446, N-(3-(2-hydroxypropan-2-yl)phenyl)-1′,2-dimethyl-5′-morpholino-6′-oxo-1′,6′-dihydro-[3,3′-bipyridine]-5-carboxamide], for which the IC50 is 100 nM.

In the case of `Cc1ccc(NC(=O)c2ccnc(C(C)(C)O)c2)cc1-c1cc(N2CCOCC2)n2nccc2n1` [Example 794, 2-(2-hydroxypropan-2-yl)-N-(4-methyl-3-(7-morpholinopyrazolo[1,5-a]pyrimidin-5-yl)phenyl)isonicotinamide], the IC50 was found to be 2.6 nM.

In the case of `CCNc1nc(-c2cc(NC(=O)c3ccnc(C(C)(C)C)c3)ccc2C)cc(N2CCOCC2)n1` [Example 696, 2-(tert-butyl)-N-(3-(2-(ethylamino)-6-morpholinopyrimidin-4-yl)-4-methylphenyl)isonicotinamide], the IC50 is 2.4 nM.

Turning to `CCNc1nc(-c2cc(NC(=O)c3ccnc(C(C)(C)C#N)c3)cnc2C)cc(N2CCOCC2)n1` [Example 718, 2-(2-cyanopropan-2-yl)-N-(5-(2-(ethylamino)-6-morpholinopyrimidin-4-yl)-6-methylpyridin-3-yl)isonicotinamide], the IC50 was 8.4 nM.

As for `Cc1ccc(NC(=O)c2cccc(C(F)(F)F)c2)cc1-c1cc(N2CCOCC2)nc(N2CC(O)C2)n1` [Example 765, N-(3-(2-(3-hydroxyazetidin-1-yl)-6-morpholinopyrimidin-4-yl)-4-methylphenyl)-3-(trifluoromethyl)benzamide], the IC50 came out at 1 nM.

Staying with this experiment, now noted: read-out: b-Raf IC-50; AlphaScreen, 60 min pre-incubation, reaction 3 hours at room temperature.
With `Cc1ncc(NC(=O)c2ccnc(C(C)(C)C#N)c2)cc1-c1cc(N2CCOCC2)c2nccn2c1` [Example 881, 2-(2-cyanopropan-2-yl)-N-(6-methyl-5-(8-morpholinoimidazo[1,2-a]pyridin-6-yl)pyridin-3-yl)isonicotinamide], the IC50 came to 32.6 nM.

On to `Cc1ccc(NC(=O)c2cc(C(C)(C)C#N)ccn2)cc1-c1cc(N2CCOCC2)c(=O)n(C)n1` [Example 910, 4-(2-cyanopropan-2-yl)-N-(4-methyl-3-(1-methyl-5-morpholino-6-oxo-1,6-dihydropyridazin-3-yl)phenyl)picolinamide], for which the IC50 amounted to 5.09 nM.

As for `Cc1ccc(NC(=O)c2cc(C(C)(F)F)ccn2)cc1-c1cc(N2CCOCC2)c(=O)n(C)c1` [Example 905, 4-(1,1-difluoroethyl)-N-(4-methyl-3-(1-methyl-5-morpholino-6-oxo-1,6-dihydropyridin-3-yl)phenyl)picolinamide], the IC50 was 2.33 nM.

Take `Cc1ncc(NC(=O)c2ccnc(C(C)(F)F)c2)cc1-c1cc(N2CCOCC2)nc(N2CC(O)C2)c1` [Example 1080, 2-(1,1-difluoroethyl)-N-(2′-(3-hydroxyazetidin-1-yl)-2-methyl-6′-morpholino-[3,4′-bipyridin]-5-yl)isonicotinamide]: the IC50 came out at 12.9 nM.

`Cc1ccc(NC(=O)c2cccc(S(C)(=O)=O)c2)cc1-c1cc(N2CCOCC2)nc(N2CC(O)C2)c1` [Example 1096, N-(3-(2-(3-hydroxyazetidin-1-yl)-6-morpholinopyridin-4-yl)-4-methylphenyl)-3-(methylsulfonyl)benzamide]: the IC50 stood at 2 nM.

Take `Cc1ncc(NC(=O)c2ccnc(C(F)F)c2)cc1-c1cc(N2CCOCC2)c(OC(C)C)nn1` [Example 913, 2-(difluoromethyl)-N-(5-(6-isopropoxy-5-morpholinopyridazin-3-yl)-6-methylpyridin-3-yl)isonicotinamide]: the IC50 worked out at 2.16 nM.

Turning to `Cc1ccc(NC(=O)c2ccnc(C(C)(C)F)c2)cc1-c1cnc(OC(C)C)c(N2CCOCC2)c1` [Example 946, 2-(2-fluoropropan-2-yl)-N-(3-(6-isopropoxy-5-morpholinopyridin-3-yl)-4-methylphenyl)isonicotinamide], the IC50 turned out to be 2.36 nM.

As for `Cc1ccc(NC(=O)c2ccnc(C(F)(F)F)c2)cc1-c1cc(-c2c(C)n[nH]c2C)nc(N2CCOCC2)c1` [Example 1127, N-(3-(2-(3,5-dimethyl-1H-pyrazol-4-yl)-6-morpholinopyridin-4-yl)-4-methylphenyl)-2-(trifluoromethyl)isonicotinamide], the IC50 was 1.48 nM.

Consider `Cc1ncc(NC(=O)c2cccc(C(F)(F)F)c2)cc1-c1cnc(OC[C@@H](C)O)c(N2CCOCC2)c1` [Example 984, (R)—N-(6′-(2-hydroxypropoxy)-2-methyl-5′-morpholino-[3,3′-bipyridin]-5-yl)-3-(trifluoromethyl)benzamide], for which the IC50 turned out to be 2.28 nM.

`Cc1ccc(NC(=O)c2cnnc(C(F)(F)F)c2)cc1-c1cc(N2CCOCC2)nc(N2CC(C)(O)C2)c1` [Example 1073, N-(3-(2-(3-hydroxy-3-methylazetidin-1-yl)-6-morpholinopyridin-4-yl)-4-methylphenyl)-6-(trifluoromethyl)pyridazine-4-carboxamide]: the IC50 is 2.99 nM.

The experiment is the same for the next values; noted with them: read-out: b-Raf IC-50; Table 2; AlphaScreen, 3 hours reaction.
For the molecule `CCOc1ncc(-c2cc(NC(=O)c3cc(C(F)(F)F)c(=O)n(CC)c3)ccc2C)cc1N1CCOCC1` [Example 234, N-(3-(6-ethoxy-5-morpholinopyridin-3-yl)-4-methylphenyl)-1-ethyl-6-oxo-5-(trifluoromethyl)-1,6-dihydropyridine-3-carboxamide], the IC50 came out at 1 nM.

With `Cn1cc(-c2cc(C(=O)Nc3cccc(C(F)(F)F)c3)ccc2Cl)cc(N2CCOCC2)c1=O` [Example 425, 4-chloro-3-(1-methyl-5-morpholino-6-oxo-1,6-dihydropyridin-3-yl)-N-(3-(trifluoromethyl)phenyl)benzamide], the IC50 stood at 2.6 nM.

As for `Cn1cc(-c2cc(C(=O)Nc3cccc(C(F)(F)F)c3)cnc2Cl)cc(N2CCOCC2)c1=O` [Example 423, 2-chloro-1′-methyl-5′-morpholino-6′-oxo-N-(3-(trifluoromethyl)phenyl)-1′,6′-dihydro-[3,3′-bipyridine]-5-carboxamide], the IC50 came out at 6 nM.

For `CCn1cc(C(=O)Nc2cnc(C)c(-c3cc(N4CCOCC4)c(=O)n(C)c3)c2)c(C)n1` [Example 373, N-(1′,2-dimethyl-5′-morpholino-6′-oxo-1′,6′-dihydro-[3,3′-bipyridin]-5-yl)-1-ethyl-3-methyl-1H-pyrazole-4-carboxamide], the IC50 is 1100 nM.

In the case of `Cc1ncc(NC(=O)c2cnnc(C(C)(C)C#N)c2)cc1-c1cncc(N2CCOCC2)c1` [Example 296, 6-(2-cyanopropan-2-yl)-N-(2-methyl-5′-morpholino-[3,3′-bipyridin]-5-yl)pyridazine-4-carboxamide], the IC50 was determined as 24.7 nM.

The next experiment addresses T1, b-Raf (V600E). Briefly: biochemical.
Conditions: not given
The molecule `CNCc1ccc(C(=O)Nc2ccc(C)c(-c3cc(N4CCOCC4)c4nccn4c3)c2)cc1C(F)(F)F` [Example 853, N-(4-methyl-3-(8-morpholinoimidazo[1,2-a]pyridin-6-yl)phenyl)-4-((methylamino)methyl)-3-(trifluoromethyl)benzamide] came in with an IC50 of 2.4 nM.

`Cc1ccc(NC(=O)c2ccnc(C(C)(F)F)c2)cc1-c1cc(N2CCOCC2)n(C)c(=O)c1` [Example 471, 2-(1,1-difluoroethyl)-N-(4-methyl-3-(1-methyl-6-morpholino-2-oxo-1,2-dihydropyridin-4-yl)phenyl)isonicotinamide] came in with an IC50 of 1 nM.

`Cc1ccc(NC(=O)c2cnnc(C(F)(F)F)c2)cc1-c1cc(N2CCOCC2)c(OC2CCOCC2)nn1` [Example 577, N-(4-methyl-3-(5-morpholino-6-((tetrahydro-2H-pyran-4-yl)oxy)pyridazin-3-yl)phenyl)-6-(trifluoromethyl)pyridazine-4-carboxamide] returned an IC50 of 0.6 nM.

`Cc1ccc(NC(=O)c2ccc(CO)c(C(F)(F)F)c2)cc1-c1cc(N2CCOCC2)c(=O)n(C)c1` [Example 462, 4-(hydroxymethyl)-N-(4-methyl-3-(1-methyl-5-morpholino-6-oxo-1,6-dihydropyridin-3-yl)phenyl)-3-(trifluoromethyl)benzamide] showed an IC50 of 3.7 nM.

`Cc1ccc(NC(=O)c2ccnc(C(C)(C)O)c2)cc1-c1cc2[nH]cnc2c(N2CCOCC2)n1` [Example 823, 2(2-hydroxypropan-2-yl)-N-(4-methyl-3-(4-morpholino-1H-imidazo[4,5-c]pyridin-6-yl)phenyl)isonicotinamide]: the IC50 amounted to 9.4 nM.
